pEC50: −log10 of the molar value.
Key:
PC9 cells [1] = assay: cells; details: Homo sapiens, PC-9, read-out: concentration required to inhibit growth of PC9 cells by 50% (EC50)
Protocol: PC9 cells were seeded at 5×10^5 cells in multiple fresh T75 flasks in growth media and incubated at 37° C., 5% CO2.

active NRAS [2] = assay: RAS activation assay (GST-RAS binding domain pull down, western blot) in resistant PC-9 cells with E63K or G12V NRAS; format: cell-based, human; details: mutant NRAS (E63K or G12V) resistant PC-9 cells; 160 nM for 2 hours
Protocol: (§1) PC9 and PC9 AZD9291 resistant cells were cultured in media containing no AZD9291 for 4 days. Cells were then plated into 6 well plates and serum starved overnight. The following day the cells were treated for 2 hours with media supplemented with or without 160 nM AZD9291. Lysates were prepared and active NRAS isolated using a GST-RAS binding domain pull down assay (Thermo Scientific). Pull down lysates were analysed by western blot using an NRAS specific antibody.

PC9 cells [3] = assay: Growth inhibition of PC9 cells over expressing E63K mutant NRAS (sytox green); format: cell-based, human; details: 100 nM AZD9291 or 300 nM gefitinib, 96 hours, vs control construct
Protocol: PC9 cells were transfected with control DNA construct, pcDNA 3.1+ control, or a construct designed to express E63K mutant NRAS, pcDNA 3.1+/NRAS E63K, (Life Technologies Ltd.). For 96 hour expression MaxCyte transfection technology was used to electroporate the PC9 cells. PC9 cells were passaged the day before the transfection. On the day of the transfection cells were harvested and resuspended at 9×10^7 cells per 600 μL MaxCyte buffer. 100 μL of cell suspension was transferred to a MaxCyte cuvette and the cells electroporated with 20 μg DNA construct. Following electroporation the cells for each condition were transferred to a 6 well plate and incubated at 37° C. for 30 minutes after which they were seeded in a 6 well plate at 4×10^5 cells per well. Following over night incubation the cells were harvested and replated in 384 well plate at 1000 cells/well. […] A live cell number was determined using the sytox green method as described hereinbefore.

active NRAS [4] = assay: RAS activation assay (GST-RAS binding domain pull down, western blot) in parental PC-9 cells; format: cell-based, human; details: 160 nM for 2 hours
Protocol: as §1

[5] = system: PC9_9291R_LOB3 (NRAS G12R); assay: Sytox Green live cell number assay, selumetinib titration; format: cell-based, human
Protocol: (§2) The effects of a panel of canonical pathway inhibitors on cell growth and survival was measured using a cell assay using Sytox Green staining as an end point.
(§3) Cell lines were plated in 384 well plates at 1000 cells per well in 70 μL per well of RPMI media containing 10% foetal calf serum, 2 mM L-glutamine and originating EGFR inhibitor.
The cells were allowed to attach overnight at 37° C., 5% CO2. The following day titrations of test compound were added to the assay plates using an Echo Liquid Handler Labcyte (California, USA) and the treated cells incubated for a further 72 hours at 37° C., 5% CO2. Each compound was tested as an 11 point dose response with a top concentration of 10 μM and 1 in 3 dilutions. Following 72 hours incubation of the compound treated plates, 5 μL of 2 μM SYTOX Green Nucleic Acid Stain, Life Technologies (Paisley, UK) was added per well and the plates incubated at room temperature for one hour. The number of fluorescent cells per well was measured on the Acumen TTP LabTech Ltd. (Melbourn, UK) this number representing the dead cell count. 10 μL of 0.25% Saponin Sigma (Dorset, UK) was added per well and the plates incubated over night at room temperature. […]
An AZD9291-resistant PC9 cell line was prepared using standard methods as illustrated hereinbefore. A range of such resistant cell populations were cultured and analysed.

[6] = system: PC9_IR4_9291R_2 (NRAS WT gain); assay: as above; format: cell-based; details: Homo sapiens, with originating EGFR inhibitor, 72 hours
Protocol: as §2, §3
(§4) The cells were allowed to attach overnight at 37° C., 5% CO2. The following day titrations of test compound were added to the assay plates using an Echo Liquid Handler Labcyte (California, USA) and the treated cells incubated for a further 72 hours at 37° C., 5% CO2. Each compound was tested as an 11 point dose response with a top concentration of 10 μM and 1 in 3 dilutions. Following 72 hours incubation of the compound treated plates, 5 μL of 2 μM SYTOX Green Nucleic Acid Stain, Life Technologies (Paisley, UK) was added per well and the plates incubated at room temperature for one hour. The number of fluorescent cells per well was measured on the Acumen TTP LabTech Ltd. (Melbourn, UK) this number representing the dead cell count. 10 μL of 0.25% Saponin Sigma (Dorset, UK) was added per well and the plates incubated over night at room temperature. The total number of fluorescent cells per well was acquired on the Acumen. The number of dead cells was subtracted from the total number of cells and the live cell number plotted to determine EC50 values from dose response curves.

[7] = system: PC9_IR4_9291R_3 (NRAS WT gain); assay: as above; format: cell-based; details: Homo sapiens, with originating EGFR inhibitor, 72 hours
Protocol: as §2, §3, §4

[8] = system: PC9_9291R_LOB1 (NRAS E63K); assay: as above; format: cell-based; details: Homo sapiens, with originating EGFR inhibitor, 72 hours
Protocol: as §2, §3, §4

PC9_IRGM (NRAS WT) = assay: as above; format: cell-based; details: Homo sapiens, with originating EGFR inhibitor, 72 hours
Protocol: as §2, §3, §4

[9] = system: PC9_afatinib_5 (NRAS gain); assay: as above; format: cell-based; details: Homo sapiens, with originating EGFR inhibitor, 72 hours
Protocol: as §2, §3, §4

PC9_IRLR (NRAS E63K) = assay: as above; format: cell-based; details: Homo sapiens, with originating EGFR inhibitor, 72 hours
Protocol: as §2, §3, §4

PC9_9291R_3 (NRAS G12V) = assay: as above; format: cell-based; details: Homo sapiens, with originating EGFR inhibitor, 72 hours
Protocol: as §2, §3, §4

PC9 (NRAS WT) = assay: as above; format: cell-based; details: Homo sapiens, PC9 (NRAS WT) parental, 72 hours
Protocol: as §2, §3, §4

NRAS = assay: siRNA knockdown, western blot of NRAS expression; format: cell-based, human; details: 20 nM siRNA, 48 hours; PC9, PC9 gefitinib-resistant and PC9 AZD9291-resistant cells
Protocol: (§5) PC9, PC9 gefitinib-resistant and PC9 AZD9291-resistant cells were plated at 5×10^5 cells per well in 6 well plates in 2 mls per well of growth media supplemented with EGFR inhibitor where appropriate (resistant cells were grown in the presence of EGFR inhibitor). The cells were incubated over night at 37° C., 5% CO2. The following day the cells were treated with a final concentration of 20 nM of siRNA from Dharmacon as detailed in Table 7.
(§6) Each siRNA construct was prepared in Optimem (Life Technologies) media using RNA iMAX (Invitrogen) as transfection reagent. For each well: 2.5 μl of siRNA (20 μM stock) was mixed with 250 μL of Optimem; and 2.5 μL of RNA iMAX was mixed with 250 μL of Optimem. The 2 solutions were mixed together by pipetting and allowed to stand for 5 minutes at room temperature. The final 500 μL solution was then pipetted into the appropriate 2 mL of growth media in the 6 well plates. The plates were swirled gently and further incubated over night at 37° C., 5% CO2. The following day each well of cells was harvested and the cell number counted.
(§7) The following day, lysates were prepared from the 6 well plates so that knockdown of protein expression could be assessed following 48 hours treatment with siRNA. The lysates were analysed by western blot for levels of: phosphorylated EGFR, phosphorylated ERK, NRAS and KRAS. […]

KRAS = assay: siRNA knockdown, western blot of KRAS expression; format: cell-based, human; details: 20 nM siRNA, 48 hours; PC9, PC9 gefitinib-resistant and PC9 AZD9291-resistant cells
Protocol: as §5, §6, §7

## C=CC(=O)Nc1cc(Nc2nccc(-c3cn(C)c4ccccc34)n2)c(OC)cc1N(C)CCN(C)C [AZD9291, N-(2-{2-dimethylaminoethyl-methylamino}-4-methoxy-5-{[4-(1-methylindol-3-yl)pyrimidin-2-yl]amino}phenyl)prop-2-enamide]
PC9 cells [1]
  pEC50: 8.00
Active NRAS [2]
  active NRAS: not associated with corresponding decrease in active NRAS
  phosphorylated EGFR: decrease
PC9 cells [3]
  cell growth inhibition when cells over expressed E63K mutant NRAS: reduced
Active NRAS [4]
  active NRAS: decrease
  phosphorylated EGFR: decrease

## Cn1cnc2c(F)c(Nc3ccc(Br)cc3Cl)c(C(=O)NOCCO)cc21 [Selumetinib, 5-[(4-bromo-2-chlorophenyl)amino]-4-fluoro-N-(2-hydroxyethoxy)-1-methyl-1H-benzimidazole-6-carboxamide]
[5]; AZD9291-resistant PC9 population with NRAS G12R vs parental cell line
  increased sensitivity as compared to the parental cell line: > 5 fold
[5]; Homo sapiens, PC9_9291R_LOB3 (NRAS G12R), with originating EGFR inhibitor, 72 hours
  pEC50: 6.85
[6]
  pEC50: 6.27
[7]
  pEC50: 6.89
[8]
  pEC50: 6.78
PC9_IRGM (NRAS WT)
  pEC50: 5.14
[9]
  pEC50: 6.05
PC9_IRLR (NRAS E63K)
  pEC50: 6.21
PC9_9291R_3 (NRAS G12V)
  pEC50: 5.85
PC9 (NRAS WT)
  pEC50: 5.16

## KRAS_1: siRNA from Dharmacon, J-005069-10, sequence GAAGUUAUGGAAUUCCUUU, SEQ ID NO: 16 (listed as RNA, chemistry not given here; listed as Homo sapiens)
NRAS
  NRAS expression (western blot): no affect
KRAS
  KRAS expression (western blot): knockdown
